Experimental data published in US11161855B2, “Tricyclic fused thiophene derivatives as JAK inhibitors” (Incyte Corporation, priority 2012, dated 2021).

Columns and labels:
Type in all cases: biochemical
[1] = test system: human JAK1 (a.a. 837-1142); test: In vitro JAK kinase assay (HTRF), JAK1; settings: ratio of IC50s, 1 mM ATP
Procedure: (§1) Compounds herein were tested for inhibitory activity of JAK targets according to the following in vitro assay described in Park et al., Analytical Biochemistry 1999, 269, 94-104. The catalytic domains of human JAK1 (a.a. 837-1142), JAK2 (a.a. 828-1132) and JAK3 (a.a. 781-1124) were expressed using baculovirus in insect cells and purified. The catalytic activity of JAK1, JAK2 or JAK3 was assayed by measuring the phosphorylation of a biotinylated peptide. The phosphorylated peptide was detected by homogenous time resolved fluorescence (HTRF). IC50s of compounds were measured for each kinase in the 40 μL reactions that contain the enzyme, ATP and 500 nM peptide in 50 mM Tris (pH 7.8) buffer with 100 mM NaCl, 5 mM DTT, and 0.1 mg/mL (0.01%) BSA. For the 1 mM IC50 measurements, ATP concentration in the reactions was 1 mM. Reactions were carried out at room temperature for 1 hour and then stopped with 20 μL 45 mM EDTA, 300 nM SA-APC, 6 nM Eu-Py20 in assay buffer (Perkin Elmer, Boston, Mass.). Binding to the Europium labeled antibody took place for 40 minutes and HTRF signal was measured on a PHERA star plate reader (BMG, Cary, N.C.). The Example compounds were each tested in the Example A assay (see Table 1 for data for the compounds of the examples as tested by the assay of Example A at 1 mM ATP).

[2] = biological target: human JAK2 (a.a. 828-1132) (Homo sapiens (Human), UniProt O60674); test: In vitro JAK kinase assay (HTRF), JAK2; set-up: key to JAK2 IC50 (nM): + indicates an IC50 of ≤100 nM; ++ indicates an IC50 of ≤1000 nM; +++ indicates an IC50 of ≤2000 nM; ++++ indicates an IC50 of >2000 nM; +++++ indicates that the IC50 was greater than the highest concentration tested; settings: 1 mM ATP
Procedure: as §1

[3] = biological target: human JAK1 (a.a. 837-1142) (Homo sapiens, UniProt P23458); test: In vitro JAK kinase assay (HTRF), JAK1; settings: 1 mM ATP
Procedure: as §1

Chain of human JAK2 (a.a. 828-1132) (O60674 828-1132): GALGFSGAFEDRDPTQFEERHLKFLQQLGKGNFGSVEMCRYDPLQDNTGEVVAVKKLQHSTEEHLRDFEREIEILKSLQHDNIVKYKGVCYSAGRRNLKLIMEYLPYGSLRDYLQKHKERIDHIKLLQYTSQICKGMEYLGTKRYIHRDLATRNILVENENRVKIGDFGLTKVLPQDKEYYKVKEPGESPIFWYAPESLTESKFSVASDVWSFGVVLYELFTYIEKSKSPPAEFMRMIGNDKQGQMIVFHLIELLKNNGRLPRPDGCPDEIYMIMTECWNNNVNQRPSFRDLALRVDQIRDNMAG

With `C[C@@H](O)c1nc2cnc3ccsc3c2n1[C@H]1CCCN(C(=O)CCC(F)(F)F)C1` [Example 52, (1R)-1-{1-[(3S)-1-(4,4,4-Trifluorobutanoyl)piperidin-3-yl]-1H-imidazo[4,5-d]thieno[3,2-b]pyridin-2-yl}ethanol] the JAK2/JAK1 [1] was >10 and the “JAK2 IC50 (nM)” value [2] was “+++++”.
With `C[C@@H](O)c1nc2cnc3ccsc3c2n1[C@@H]1CC[C@@H](CC#N)[C@H](O)C1` (single isomer, unassigned) [37 (second peak)] the IC50 [3] was ≤ 100 nM, the JAK2/JAK1 [1] was >10 and the IC50 [2] was ≤ 1000 nM.
`CCc1nc2cnc3ccsc3c2n1[C@@H]1CC[C@@H](CC#N)[C@H](O)C1` (single isomer, unassigned) [40 (second peak)] was tested, and the IC50 [3] was > 2000 nM and the “JAK2 IC50 (nM)” value [2] was “+++++”.
In the case of `C[C@@H](O)c1nc2cnc3ccsc3c2n1[C@@H]1CC[C@@H](CC#N)[C@@H](O)C1` (single isomer, unassigned) [36 (second peak)], the IC50 [3] is reported as ≤ 100 nM, the JAK2/JAK1 [1] is reported as >10 and the IC50 [2] is reported as ≤ 1000 nM.
`CCc1nc2cnc3ccsc3c2n1[C@H]1CC[C@H](CC#N)[C@@H](O)C1` (single isomer, unassigned) [40 (first peak)] was tested, and the IC50 [3] was ≤ 100 nM, the JAK2/JAK1 [1] was >10 and the IC50 [2] was ≤ 1000 nM.
`C[C@@H](O)c1nc2cnc3ccsc3c2n1[C@H]1CC[C@H](CC#N)[C@@H](O)C1` (single isomer, unassigned) [37 (first peak)] was tested, and the IC50 [3] was ≤ 1000 nM, the JAK2/JAK1 [1] was >10 and the “JAK2 IC50 (nM)” value [2] was “+++++”.
With `Cc1nc2cnc3ccsc3c2n1[C@@H]1CC[C@@H](CC#N)[C@H](O)C1` (single isomer, unassigned) [41 (second peak)] the IC50 [3] was > 2000 nM and the “JAK2 IC50 (nM)” value [2] was “+++++”.
With `C[C@@H](O)c1nc2cnc3ccsc3c2n1[C@H]1CC[C@H](CNC(=O)OC2CCOC2)CC1` (stereo partly drawn) [Example 85, Tetrahydrofuran-3-yl [(trans-4-{2-[(1R)-1-hydroxyethyl]-1H-imidazo[4,5-d]thieno[3,2-b]pyridin-1-yl}cyclohexyl)methyl]carbamate] the JAK2/JAK1 [1] was >10.
In the case of `N#CC[C@H]1CC[C@H](n2c(C3CC3)nc3cnc4ccsc4c32)CO1` [Example 43, [(2R,5S)-5-(2-Cyclopropyl-1H-imidazo[4,5-d]thieno[3,2-b]pyridin-1-yl)tetrahydro-2H-pyran-2-yl]acetonitrile], the JAK2/JAK1 [1] is reported as >10.
In the case of `C[C@@H](O)c1nc2cnc3ccsc3c2n1[C@H]1CC[C@H](CC#N)CC1` [Example 2, (trans-4-{2-[(1R)-1-Hydroxyethyl]-1H-imidazo[4,5-d]thieno[3,2-b]pyridin-1-yl}cyclohexyl)acetonitrile], the JAK2/JAK1 [1] is reported as >10.
With `C[C@@H](O)c1nc2cnc3ccsc3c2n1[C@H]1CC[C@@H](CC#N)C1.O=C(O)C(F)(F)F` [Example 49, ((1R,3S)-3-{2-[(1R)-1-Hydroxyethyl]-1H-imidazo[4,5-d]thieno[3,2-b]pyridin-1-yl}cyclopentyl)acetonitrile Trifluoroacetate] the JAK2/JAK1 [1] was >10.
With `N#CC[C@H]1CC[C@H](n2c(CO)nc3cnc4ccsc4c32)CC1` [Example 17, {trans-4-[2-(Hydroxymethyl)-1H-imidazo[4,5-d]thieno[3,2-b]pyridin-1-yl]cyclohexyl}acetonitrile] the JAK2/JAK1 [1] was >10.
`N#CC[C@H]1CC[C@H](n2/c(=N/C#N)[nH]c3cnc4ccsc4c32)CC1.O=C(O)C(F)(F)F` [Example 25, {(2E)-1-[trans-4-(Cyanomethyl)cyclohexyl]-1,3-dihydro-2H-imidazo[4,5-d]thieno[3,2-b]pyridin-2-ylidene}cyanamide Trifluoroacetate] was tested, and the JAK2/JAK1 [1] was >6.
With `C[C@@H](O)c1nc2cnc3ccsc3c2n1[C@H]1CCCN(CCC#N)C1` [Example 56, 3-((3S)-3-{2-[(1R)-1-Hydroxyethyl]-1H-imidazo[4,5-d]thieno[3,2-b]pyridin-1-yl}piperidin-1-yl)propanenitrile] the JAK2/JAK1 [1] was >10.
In the case of `Cc1nc2cnc3ccsc3c2n1[C@H]1CC[C@H](CC#N)[C@@H](O)C1` (single isomer, unassigned) [41 (first peak)], the JAK2/JAK1 [1] is reported as >10.
In the case of `N#CC[C@H]1CC[C@H](n2c(C3CNC3)nc3cnc4ccsc4c32)CC1` [Example 28, [trans-4-(2-Azetidin-3-yl-1H-imidazo[4,5-d]thieno[3,2-b]pyridin-1-yl)cyclohexyl]acetonitrile], the JAK2/JAK1 [1] is reported as >7.
For `C[C@@H](O)c1nc2cnc3ccsc3c2n1C1CCC(NCCC#N)CC1` (single isomer, unassigned) [30 (second peak)], the JAK2/JAK1 [1] was >10.
In the case of `C[C@@H](O)c1nc2cnc3ccsc3c2n1[C@H]1CCC(CO)OC1` (stereo partly drawn) [Example 19, (1R)-1-{1-[(3S)-6-(Hydroxymethyl)tetrahydro-2H-pyran-3-yl]-1H-imidazo[4,5-d]thieno[3,2-b]pyridin-2-yl}ethanol], the JAK2/JAK1 [1] is reported as >10.
`C[C@@H](O)c1nc2cnc3ccsc3c2n1[C@H]1CC[C@@H](n2cncn2)CC1` [Example 6, (1R)-1-{1-[cis-4-(1H-1,2,4-Triazol-1-yl)cyclohexyl]-1H-imidazo[4,5-d]thieno[3,2-b]pyridin-2-yl}ethanol] was tested, and the JAK2/JAK1 [1] was >6.
`N#CCc1nc2cnc3ccsc3c2n1[C@H]1CC[C@H](CC#N)OC1` [Example 73, {(2R,5S)-5-[2-(Cyanomethyl)-1H-imidazo[4,5-d]thieno[3,2-b]pyridin-1-yl]tetrahydro-2H-pyran-2-yl}acetonitrile] was tested, and the JAK2/JAK1 [1] was >10.
`C[C@@H](O)c1cc2cnc3ccsc3c2n1[C@H]1CC[C@H](CC#N)CC1` [Example 23, (trans-4-{7-[(1R)-1-Hydroxyethyl]-8H-pyrrolo[2,3-d]thieno[3,2-b]pyridin-8-yl}cyclohexyl)acetonitrile] was tested, and the JAK2/JAK1 [1] was >10.
With `C[C@@H](O)c1nc2cnc3ccsc3c2n1[C@H]1CC[C@H](CC#N)[C@H](O)C1` (single isomer, unassigned) [36 (first peak)] the IC50 [3] was ≤ 100 nM, the JAK2/JAK1 [1] was >10 and the IC50 [2] was > 2000 nM.
In the case of `CC(C)c1nc2cnc3ccsc3c2n1[C@H]1CC[C@H](CC#N)OC1` [Example 42, [(2R,5S)-5-(2-Isopropyl-1H-imidazo[4,5-d]thieno[3,2-b]pyridin-1-yl)tetrahydro-2H-pyran-2-yl]acetonitrile], the JAK2/JAK1 [1] is reported as >10.
`C[C@@H](O)c1nc2cnc3ccsc3c2n1[C@H]1CC[C@H](CC#N)CC1.Cl` [Example 10, (trans-4-{2-[(1R)-1-Hydroxyethyl]-1H-imidazo[4,5-d]thieno[3,2-b]pyridin-1-yl}cyclohexyl)acetonitrile HCl Salt] was tested, and the JAK2/JAK1 [1] was >10.
`C[C@@H](O)c1nc2cnc3ccsc3c2n1[C@H]1CCN(CCCC#N)C1` [Example 65, 4-((3S)-3-{2-[(1R)-1-Hydroxyethyl]-1H-imidazo[4,5-d]thieno[3,2-b]pyridin-1-yl}pyrrolidin-1-yl)butanenitrile] was tested, and the JAK2/JAK1 [1] was >10.
`CS(=O)(=O)NCc1nc2cnc3ccsc3c2n1[C@H]1CC[C@H](CC#N)CC1` [Example 18, N-({1-[trans-4-(Cyanomethyl)cyclohexyl]-1H-imidazo[4,5-d]thieno[3,2-b]pyridin-2-yl}methyl)methanesulfonamide] was tested, and the JAK2/JAK1 [1] was >10.
`C[C@@H](O)c1nc2cnc3ccsc3c2n1[C@H]1CC[C@H](CC#N)[C@H](N)C1` [Example 67, ((1R,2R,4S)-2-Amino-4-{2-[(1R)-1-hydroxyethyl]-1H-imidazo[4,5-d]thieno[3,2-b]pyridin-1-yl}cyclohexyl)acetonitrile] was tested, and the JAK2/JAK1 [1] was >10.
In the case of `C[C@@H](O)c1nc2cnc3ccsc3c2n1[C@H]1CCCN(C(=O)CCc2ccccc2)C1` [Example 57], the JAK2/JAK1 [1] is reported as >10.
